pKi: −log10 of the molar value.

For this experiment, the target named is T1, rat mGluR5 receptors (Rattus norvegicus, UniProt P31424).
T1 construct: rat cerebro-cortical membrane preparation was used; from tissue; host or cells: rat cerebral cortex membranes
T1 sequence (P31424 21-1203): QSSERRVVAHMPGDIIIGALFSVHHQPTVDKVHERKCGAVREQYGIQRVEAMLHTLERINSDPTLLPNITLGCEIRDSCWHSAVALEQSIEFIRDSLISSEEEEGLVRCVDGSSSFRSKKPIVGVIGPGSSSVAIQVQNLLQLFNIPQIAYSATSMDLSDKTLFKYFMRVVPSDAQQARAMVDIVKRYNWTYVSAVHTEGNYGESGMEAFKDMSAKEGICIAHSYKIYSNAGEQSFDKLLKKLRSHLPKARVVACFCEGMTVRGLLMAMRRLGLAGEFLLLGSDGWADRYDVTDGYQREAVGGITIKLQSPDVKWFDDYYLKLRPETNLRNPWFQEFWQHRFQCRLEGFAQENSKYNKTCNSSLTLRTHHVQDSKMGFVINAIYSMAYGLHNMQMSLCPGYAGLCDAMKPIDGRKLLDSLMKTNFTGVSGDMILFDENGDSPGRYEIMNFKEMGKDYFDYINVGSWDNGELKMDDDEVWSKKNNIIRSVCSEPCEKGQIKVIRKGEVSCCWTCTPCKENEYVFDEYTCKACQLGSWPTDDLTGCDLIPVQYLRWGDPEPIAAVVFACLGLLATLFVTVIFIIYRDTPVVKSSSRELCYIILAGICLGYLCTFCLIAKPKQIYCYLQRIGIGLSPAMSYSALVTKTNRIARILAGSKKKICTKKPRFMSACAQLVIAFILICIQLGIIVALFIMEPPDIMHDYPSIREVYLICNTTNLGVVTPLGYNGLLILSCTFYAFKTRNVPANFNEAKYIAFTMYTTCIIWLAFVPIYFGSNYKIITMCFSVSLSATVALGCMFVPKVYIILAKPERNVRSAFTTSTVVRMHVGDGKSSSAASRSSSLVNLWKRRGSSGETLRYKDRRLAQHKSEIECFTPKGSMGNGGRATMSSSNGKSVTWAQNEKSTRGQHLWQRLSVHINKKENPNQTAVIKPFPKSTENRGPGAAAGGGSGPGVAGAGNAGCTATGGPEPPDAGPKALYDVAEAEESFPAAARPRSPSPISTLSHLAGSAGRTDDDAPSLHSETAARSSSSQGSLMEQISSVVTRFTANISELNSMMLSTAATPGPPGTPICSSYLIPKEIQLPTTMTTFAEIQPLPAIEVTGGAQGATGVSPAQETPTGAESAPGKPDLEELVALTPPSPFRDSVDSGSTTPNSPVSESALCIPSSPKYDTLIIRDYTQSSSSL
Description: mGluR5 receptor binding test, rat cerebro-cortical membrane preparation, [3H]-M-MPEP. Conditions: affinity for rat mGluR5 receptors; [3H]-M-MPEP (2 nM) radioligand. The method, then:
The mGluR5 receptor binding was determined according to the modified method of Gasparini et. al. (Bioorg. Med. Chem. Lett., 2000, 12, 407). Based on the high homology between the human and rat mGluR5 receptors, rat cerebro-cortical membrane preparation was used to determine the binding characteristics of the reference compounds and novel compounds to the rat mGluR5. The A18 cell line expressing hmGluR5a (purchased from Euroscreen) was used to determine binding characteristics of the chemical compounds to the human mGluR5a receptor. [^3H]-M-MPEP (2 nM) was used as radioligand. The nonspecific binding was determined in the presence of 10 μM M-MPEP.
Regarding `O=S(=O)(c1ccc(Cl)cc1)c1cnc2ccccc2c1N1CCN(c2ccc(F)cc2)CC1` [Compound 72], the pKi is less than 6.30.
The same measure for `Cc1ccc(S(=O)(=O)c2cnc3ccc(C)cc3c2N2CCN(c3ccccc3F)CC2)cc1` [Compound 73]: less than 6.30; for `COc1ccccc1N1CCN(c2c(S(=O)(=O)c3ccc(C)cc3)cnc3ccccc23)CC1` [Compound 74]: less than 6.30; for `COc1ccc(N2CCN(c3c(S(=O)(=O)c4ccc(Cl)cc4)cnc4ccc(C)cc34)CC2)cc1` [Compound 75]: less than 6.30.
The result for `CCN(CC)c1c(S(=O)(=O)c2ccc(C)cc2)cnc2ccccc12` [Compound 76] reads 6.30 to 6.70; that for `Cc1ccc(S(=O)(=O)c2cnc3ccccc3c2NCc2ccccc2)cc1` [Compound 77], greater than 6.70.
The same measure for `COc1ccc2ncc(S(=O)(=O)c3ccc(Cl)cc3)c(NCc3ccccc3)c2c1` [Compound 78]: less than 6.30; for `O=S(=O)(c1ccc(Cl)cc1)c1cnc2ccccc2c1N1CCN(Cc2ccccc2)CC1` [Compound 79]: 6.30 to 6.70.
On to `Cc1ccc(S(=O)(=O)c2cnc3ccccc3c2N2CCN(Cc3ccccc3)CC2)cc1` [Compound 80], for which the pKi is less than 6.30.
The same measure for `CCOC(=O)C1CCN(c2c(S(=O)(=O)c3ccccc3)cnc3ccc(CC)cc23)CC1` [Compound 81]: less than 6.30; for `O=S(=O)(c1ccccc1)c1cnc2cc3c(cc2c1N1CCCC1)OCCO3` [Compound 82]: less than 6.30.
In the case of `CCc1ccc2ncc(S(=O)(=O)c3ccc(C)cc3)c(N(CC)CC)c2c1` [Compound 83], the pKi is less than 6.30.
The result for `CCc1ccc2ncc(S(=O)(=O)c3ccc(Cl)cc3)c(N(CC)CC)c2c1` [Compound 84] reads less than 6.30; that for `CCc1ccc2ncc(S(=O)(=O)c3ccc(C)cc3)c(NCc3ccccc3)c2c1` [Compound 85], less than 6.30; that for `Cc1ccc(S(=O)(=O)c2cnc3ccc(C)cc3c2N2CCCCCC2)cc1` [Compound 86], less than 6.30.
The same measure for `COc1ccc2ncc(S(=O)(=O)c3ccc(C)cc3)c(NCc3ccccc3)c2c1` [Compound 87]: less than 6.30.
The result for `COc1ccc(S(=O)(=O)c2cnc3ccc(OC)cc3c2N2CCC(C)CC2)cc1` [Compound 88] reads less than 6.30; that for `O=S(=O)(c1ccccc1)c1cnc2ccccc2c1N1CCCCCC1` [Compound 89], 6.30 to 6.70; that for `Cc1ccc2ncc(S(=O)(=O)c3ccccc3)c(N3CCN(Cc4ccccc4)CC3)c2c1` [Compound 90], less than 6.30.
`Cc1ccc(S(=O)(=O)c2cnc3cc4c(cc3c2N2CCC(C)CC2)OCCO4)cc1` [Compound 92] showed a pKi of less than 6.30.
The result for `Cc1ccc2ncc(S(=O)(=O)c3ccc(Cl)cc3)c(N3CCCCC3)c2c1` [Compound 93] reads less than 6.30.
In turn, `Cc1ccc(S(=O)(=O)c2cnc3cc4c(cc3c2N2CCOCC2)OCCO4)cc1` [Compound 94] showed a pKi of less than 6.30.
The same measure for `O=S(=O)(c1ccccc1)c1cnc2cc3c(cc2c1N1CCCCCC1)OCCO3` [Compound 95]: less than 6.30.
The same measure for `CCc1ccc2ncc(S(=O)(=O)c3ccc(C)cc3)c(N3CCCCC3)c2c1` [Compound 96]: less than 6.30; for `Cc1ccc(S(=O)(=O)c2cnc3ccccc3c2N2CCC3(CC2)OCCO3)cc1` [Compound 97]: less than 6.30.
In turn, `CCOC(=O)C1CCN(c2c(S(=O)(=O)c3ccc(C)cc3)cnc3ccc(OCC)cc23)CC1` [Compound 98] showed a pKi of less than 6.30.
For `CCOC(=O)C1CCCN(c2c(S(=O)(=O)c3ccc(C)cc3)cnc3ccc(F)cc23)C1` (stereo not shown) [Compound 99], the pKi was less than 6.30.
The result for `O=S(=O)(c1ccc(Cl)cc1)c1cnc2ccc(F)cc2c1N1CCN(Cc2ccccc2)CC1` [Compound 100] reads less than 6.30; that for `Cc1ccc(S(=O)(=O)c2cnc3ccccc3c2N2CCOCC2)cc1` [Compound 101], less than 6.30; that for `CCOc1ccc2ncc(S(=O)(=O)c3ccc(OC)cc3)c(N3CCC(C)CC3)c2c1` [Compound 102], less than 6.30.
The result for `COc1ccc2ncc(S(=O)(=O)c3ccc(C)cc3)c(NCc3ccc(F)cc3)c2c1` [Compound 103] reads less than 6.30; that for `Cc1ccc(S(=O)(=O)c2cnc3ccc(C)cc3c2N2CCOCC2)cc1` [Compound 104], less than 6.30; that for `CCc1ccc2ncc(S(=O)(=O)c3ccc(Cl)cc3)c(N3CCOCC3)c2c1` [Compound 105], less than 6.30.
The result for `COc1ccc2ncc(S(=O)(=O)c3ccc(Cl)cc3)c(N3CCN(Cc4ccccc4)CC3)c2c1` [Compound 106] reads less than 6.30.
As for `O=S(=O)(c1ccccc1)c1cnc2ccc(F)cc2c1N1CCCCC1` [Compound 107], the pKi was less than 6.30.
In turn, `CC1CCN(c2c(S(=O)(=O)c3ccccc3)cnc3ccc(Cl)cc23)CC1` [Compound 108] showed a pKi of less than 6.30.
The result for `COc1ccc2ncc(S(=O)(=O)c3ccccc3)c(N3CCC(C)CC3)c2c1` [Compound 109] reads less than 6.30; that for `CCN(CC)c1c(S(=O)(=O)c2ccc(C)cc2)cnc2ccc(OC)cc12` [Compound 110], less than 6.30; that for `COc1ccc2ncc(S(=O)(=O)c3ccccc3)c(N3CCN(Cc4ccccc4)CC3)c2c1` [Compound 111], less than 6.30.
`COc1ccc2ncc(S(=O)(=O)c3ccc(Cl)cc3)c(N3CCCCCC3)c2c1` [Compound 112] gave a pKi of less than 6.30.
Take `COc1cccc(Nc2c(S(=O)(=O)c3ccc(C)cc3)cnc3ccccc23)c1` [Compound 113]: the pKi was less than 6.30.
The same measure for `CCOc1ccc2ncc(S(=O)(=O)c3ccc(C)cc3)c(N3CCC(C)CC3)c2c1` [Compound 114]: less than 6.30; for `O=S(=O)(c1ccccc1)c1cnc2cc3c(cc2c1N1CCN(c2ccccc2)CC1)OCCO3` [Compound 115]: less than 6.30; for `CCOc1ccc2ncc(S(=O)(=O)c3ccccc3)c(N3CCC(C)CC3)c2c1` [Compound 116]: less than 6.30.
The same measure for `CCOc1ccc2ncc(S(=O)(=O)c3ccc(C)cc3)c(N3CCN(c4ccccc4F)CC3)c2c1` [Compound 117]: less than 6.30; for `O=S(=O)(c1ccccc1)c1cnc2ccc(F)cc2c1N1CCCCCC1` [Compound 118]: less than 6.30.
The same measure for `CCOc1ccc2ncc(S(=O)(=O)c3ccc(C)cc3)c(N3CCCCCC3)c2c1` [Compound 119]: less than 6.30; for `O=S(=O)(c1ccc(Cl)cc1)c1cnc2ccc(F)cc2c1N1CCOCC1` [Compound 120]: less than 6.30.
`COc1ccc2ncc(S(=O)(=O)c3ccc(C)cc3)c(NCc3ccc(C)cc3)c2c1` [Compound 121]: the pKi was less than 6.30.
For `COc1ccc(S(=O)(=O)c2cnc3ccc(Cl)cc3c2NCc2ccc(C)cc2)cc1` [Compound 122], the pKi is less than 6.30.
The same measure for `Cc1ccc2ncc(S(=O)(=O)c3ccc(Cl)cc3)c(N3CCN(c4ccccc4)CC3)c2c1` [Compound 123]: less than 6.30; for `CCN(CC)c1c(S(=O)(=O)c2ccccc2)cnc2ccc(F)cc12` [Compound 124]: less than 6.30.
As to `CCOc1ccc2ncc(S(=O)(=O)c3ccc(OC)cc3)c(N3CCOCC3)c2c1` [Compound 125], the pKi is less than 6.30.
The result for `CCc1ccc2ncc(S(=O)(=O)c3ccc(OC)cc3)c(N3CCN(C)CC3)c2c1` [Compound 127] reads less than 6.30; that for `COc1ccc2ncc(S(=O)(=O)c3ccccc3)c(N3CCN(C)CC3)c2c1` [Compound 128], less than 6.30.

For the origin of these results see patent publication US20090270371A1, “QUINOLINE DERIVATIVES USEFUL IN THE TREATMENT OF MGLUR5 RECEPTOR-MEDIATED DISORDERS” (priority 2005, published 2009).
